Reference: patent US10501479B2, “Benzenesulfonyl-asymmetric ureas and medical uses thereof” (HELSINN HEALTHCARE SA, priority 2016, dated 2019)

Columns and labels:
[1] = Metabolic stability in mouse liver microsomes; format: in vitro ADME
Outline: (§1)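 Depletion of test compound in NADPH-fortified liver microsomes (pH 7.4 phosphate buffer, 37 °C) is followed over 90 min. Remaining compound in quenched samples is quantified by LC-MS/MS against the time-zero level.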

[2] = target: T1, recombinant human ghrelin receptor (HEK293/GRLN) (Homo sapiens, UniProt Q92847); assay: Ghrelin inverse agonist potency (EC50) with IP-1 (IP-One HTRF) assay; format: cell-based; conditions: IP-1 assay, HEK293/GRLN; read-out: Activity EC50 (ghrelin inverse agonist potency)
T1 construct: expressed in transfected cells
Outline: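 HEK293/GRLN cells were seeded 18-22 hours before the test, then exposed to compound in stimulation buffer for 1 hour at 37° C, 5% CO2. IP-1 was detected by IP-One HTRF (IP1-d2 plus Tb-cryptate, 1 hour RT), reading 620 and 665 nm; the inverse agonist EC50 was derived from this.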

[3] = Metabolic stability in human liver microsomes; format: in vitro ADME
Outline: as §1

[4] = target: T2, GHSR-1a (HEK293/GHSR1a cell line) (Homo sapiens, UniProt Q92847); assay: Ghrelin agonist potency (EC50) with calcium FLIPR assay; format: cell-based; conditions: HEK293/GHSR1a, read-out: Activity EC50/EMax: EC50 (ghrelin agonist potency)
T2 construct: expressed in transfected cells; host or cells: HEK293/GHSR1a cell line
Outline: (§2)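 Potency values were estimated from dose-response curves of relative fluorescence, with calcium followed for 2 minutes after additions at t=20 sec. Agonism was tested with compound alone. Antagonism was tested with compound plus 10 nM ghrelin and scored as a reduction of the ghrelin signal.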

[5] = target: T2, GHSR-1a (HEK293/GHSR1a cell line); assay: Ghrelin antagonist potency (IC50) with calcium FLIPR assay, ghrelin 10 nM; format: cell-based; conditions: HEK293/GHSR1a, ghrelin 10 nM, read-out: Activity IC50 (ghrelin antagonist potency)
Outline: as §2

T1 sequence (Q92847 whole entry): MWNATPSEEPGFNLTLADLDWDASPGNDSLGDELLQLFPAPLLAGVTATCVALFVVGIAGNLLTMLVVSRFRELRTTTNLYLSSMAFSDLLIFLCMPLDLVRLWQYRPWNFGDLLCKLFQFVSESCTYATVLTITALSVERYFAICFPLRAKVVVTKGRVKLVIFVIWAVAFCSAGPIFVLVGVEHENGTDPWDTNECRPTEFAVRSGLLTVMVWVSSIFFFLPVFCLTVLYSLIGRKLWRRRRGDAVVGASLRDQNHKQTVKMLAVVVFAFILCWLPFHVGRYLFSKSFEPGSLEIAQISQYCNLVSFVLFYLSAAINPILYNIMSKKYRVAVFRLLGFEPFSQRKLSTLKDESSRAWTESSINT
T2 sequence (Q92847 whole entry): as above

## CN1Cc2ccc(CS(=O)(=O)c3ccc(NC(=O)NC4CCCc5ccccc54)cc3)cc2C1 (stereo not shown) [H1312, 1-(4-(((2-methylisoindolin-5-yl)methyl)sulfonyl)phenyl)-3-(1,2,3,4-tetrahydronaphthalen-1-yl)urea]
[1]
  Metabolic Stability Study M = mouse: 117.5 µL/min/mg
[2]
  EC50: 0.0858 µM
[3]
  Metabolic Stability Study H = human: 93.5 µL/min/mg
[4]
  EC50: > 30 µM
[5]
  IC50: 0.069 µM

## CC(NC(=O)Nc1ccc(S(=O)(=O)Cc2ccc3c(c2)CN(C)C3)cc1F)c1ccccc1 (stereo not shown) [H1317, 1-(2-fluoro-4-(((2-methylisoindolin-5-yl)methyl)sulfonyl)phenyl)-3-(1-phenylethyl)urea]
[1]
  Metabolic Stability Study M = mouse: 102.8 µL/min/mg
[2]
  EC50: 0.0182 µM
[3]
  Metabolic Stability Study H = human: 96.7 µL/min/mg
[4]
  EC50: > 30 µM
[5]
  IC50: 0.0484 µM

## CC(NC(=O)Nc1ccc(S(=O)(=O)Cc2ccc3c(c2)CN(C2COC2)C3)cc1)c1ccccc1 (stereo not shown) [H1319, 1-(4-(((2-(oxetan-3-yl)isoindolin-5-yl)methyl)sulfonyl)phenyl)-3-(1-phenylethyl)urea]
[1]
  Metabolic Stability Study M = mouse: > 500 µL/min/mg
[2]
  EC50: 0.0125 µM
[3]
  Metabolic Stability Study H = human: 195.6 µL/min/mg
[4]
  EC50: > 30 µM
[5]
  IC50: 0.041 µM

## CC(NC(=O)Nc1ccc(S(=O)(=O)Cc2cc3c(s2)CN(C)C3)cc1)c1ccccc1 (stereo not shown) [H1321, 1-(4-(((5-methyl-5,6-dihydro-4H-thieno[2,3-c]pyrrol-2-yl)methyl)sulfonyl)phenyl)-3-(1-phenylethyl)urea]
[1]
  Metabolic Stability Study M = mouse: 81.9 µL/min/mg
[2]
  EC50: 0.0232 µM
[3]
  Metabolic Stability Study H = human: 85.3 µL/min/mg
[4]
  EC50: > 30 µM
[5]
  IC50: 0.0475 µM

## C[C@H](NC(=O)Nc1ccc(S(=O)(=O)Cc2ccc3c(c2)CCN(C)CC3)cc1)c1ccccc1 [H1322, (S)-1-(4-(((3-methyl-2,3,4,5-tetrahydro-1H-benzo [d]azepin-7-yl)methyl)sulfonyl)phenyl)-3-(1-phenylethyl)urea]
[1]
  Metabolic Stability Study M = mouse: 171.1 µL/min/mg
[2]
  EC50: 0.0815 µM
[3]
  Metabolic Stability Study H = human: 129 µL/min/mg
[4]
  EC50: > 30 µM
[5]
  IC50: 0.112 µM

## CC(NC(=O)Nc1ccc(S(=O)(=O)Cc2cnc3c(c2)CN(C)C3)cc1)c1ccccc1 (stereo not shown) [H1323, 1-(4-(((6-methyl-6,7-dihydro-5H-pyrrolo[3,4-b]pyridin-3-yl)methyl)sulfonyl)phenyl)-3-(1-phenylethyl)urea]
[1]
  Metabolic Stability Study M = mouse: 58.5 µL/min/mg
[2]
  EC50: 0.102 µM
[3]
  Metabolic Stability Study H = human: 84.1 µL/min/mg
[4]
  EC50: > 30 µM
[5]
  IC50: 0.243 µM

## COc1cccc(C(C)NC(=O)Nc2ccc(S(=O)(=O)Cc3ccc4c(c3)CN(C)C4)cc2)c1 (stereo not shown) [H1326, 1-(1-(3-methoxyphenyl)ethyl)-3-(4-(((2-methylisoindolin-5-yl)methyl)sulfonyl)phenyl)urea]
[1]
  Metabolic Stability Study M = mouse: 60.5 µL/min/mg
[2]
  EC50: 0.0069 µM
[3]
  Metabolic Stability Study H = human: 129.5 µL/min/mg
[4]
  EC50: > 30 µM
[5]
  IC50: 0.0098 µM

## COc1cccc(C(C)NC(=O)Nc2ccc(S(=O)(=O)Cc3ccc4c(c3)CN(C)C4)cc2)c1 (stereo not shown) [H1327, 1-(1-(3-methoxyphenyl)ethyl)-3-(4-(((2-methylisoindolin-5-yl)methyl)sulfonyl)phenyl)urea]
[1]
  Metabolic Stability Study M = mouse: 144.8 µL/min/mg
[2]
  EC50: 0.0055 µM
[3]
  Metabolic Stability Study H = human: 165.3 µL/min/mg
[4]
  EC50: > 30 µM
[5]
  IC50: 0.0056 µM

## CC(NC(=O)Nc1ccc(S(=O)(=O)Nc2ccc3c(c2)CCN(C)C3)cc1)c1ccccc1Cl (stereo not shown) [H1334, 4-(3-(1-(2-chlorophenyl)ethyl)ureido)-N-(2-methyl-1,2,3,4-tetrahydroisoquinolin-6-yl)benzenesulfonamide]
[1]
  Metabolic Stability Study M = mouse: 97.9 µL/min/mg
[2]
  EC50: 0.0082 µM
[3]
  Metabolic Stability Study H = human: 109.8 µL/min/mg
[4]
  EC50: > 30 µM
[5]
  IC50: 0.00918 µM

## C[C@@H](NC(=O)Nc1ccc(S(=O)(=O)Nc2ccc3c(c2)CN(C)C3)cc1)c1ccccc1 [H1337, (R)-N-(2-methylisoindolin-5-yl)-4-(3-(1-phenylethyl)ureido) benzenesulfonamide]
[1]
  Metabolic Stability Study M = mouse: 39.2 µL/min/mg
[2]
  EC50: 0.0105 µM
[3]
  Metabolic Stability Study H = human: 58.6 µL/min/mg
[4]
  EC50: > 30 µM
[5]
  IC50: 0.0241 µM

## COCCN1Cc2ccc(CS(=O)(=O)c3ccc(NC(=O)NC(C)c4ccccc4)cc3)cc2C1 (stereo not shown) [H1338, 1-(4-(((2-(2-methoxyethyl)isoindolin-5-yl)methyl)sulfonyl)phenyl)-3-(1-phenylethyl)urea]
[1]
  Metabolic Stability Study M = mouse: 242.1 µL/min/mg
[2]
  EC50: 0.0065 µM
[3]
  Metabolic Stability Study H = human: 106.9 µL/min/mg
[4]
  EC50: > 30 µM
[5]
  IC50: 0.0076 µM

## CC(NC(=O)Nc1ccc(S(=O)(=O)Cc2ccc3c(c2)CN(C2CCOC2)C3)cc1)c1ccccc1.O=C(O)C(F)(F)F (stereo not shown) [H1340, 1-(1-phenylethyl)-3-(4-(((2-(tetrahydrofuran-3-yl)isoindolin-5-yl)methyl)sulfonyl)phenyl)urea]
[1]
  Metabolic Stability Study M = mouse: > 500 µL/min/mg
[2]
  EC50: 0.0033 µM
[3]
  Metabolic Stability Study H = human: 282.4 µL/min/mg
[4]
  EC50: > 30 µM
[5]
  IC50: 0.0047 µM

## CC(NC(=O)Nc1ccc(S(=O)(=O)Cc2ccc3c(c2)CCN(C)C3)cc1)c1ccccc1F (stereo not shown) [H1342, 1-(1-(2-fluorophenyl)ethyl)-3-(4-(((2-methyl-1,2,3,4-tetrahydroisoquinolin-6-yl)methyl)sulfonyl)phenyl)urea]
[1]
  Metabolic Stability Study M = mouse: 118.4 µL/min/mg
[2]
  EC50: 0.0079 µM
[3]
  Metabolic Stability Study H = human: 80.1 µL/min/mg
[4]
  EC50: > 30 µM
[5]
  IC50: 0.0174 µM

## C[C@@H](NC(=O)Nc1ccc(S(=O)(=O)Cc2ccc3c(c2)CCN(C)C3)cc1)c1cccc(Cl)c1Cl [H1343, (R)-1-(1-(2,3-dichlorophenyl)ethyl)-3-(4-(((2-methyl-1,2,3,4-tetrahydroisoquinolin-6-yl)methyl)sulfonyl)phenyl)urea]
[1]
  Metabolic Stability Study M = mouse: 252.4 µL/min/mg
[2]
  EC50: 0.0021 µM
[3]
  Metabolic Stability Study H = human: 71.9 µL/min/mg
[4]
  EC50: > 30 µM
[5]
  IC50: 0.0052 µM

## CC(NC(=O)Nc1ccc(S(=O)(=O)Cc2ccc3c(c2)CCN(C)C3)cc1)c1ccccc1Cl (stereo not shown) [H1344, 1-(1-(2-chlorophenyl)ethyl)-3-(4-(((2-methyl-1,2,3,4-tetrahydroisoquinolin-6-yl)methyl)sulfonyl)phenyl)urea]
[1]
  Metabolic Stability Study M = mouse: 115.7 µL/min/mg
[2]
  EC50: 0.0041 µM
[3]
  Metabolic Stability Study H = human: 53.5 µL/min/mg
[4]
  EC50: > 30 µM
[5]
  IC50: 0.0044 µM

## CC(NC(=O)Nc1ccc(S(=O)(=O)Cc2ccc3c(c2)CCN(C)C3)cc1)c1cccc(F)c1F (stereo not shown) [H1345, 1-(1-(2,3-difluorophenyl)ethyl)-3-(4-(((2-methyl-1,2,3,4-tetrahydroisoquinolin-6-yl)methyl)sulfonyl)phenyl)urea]
[1]
  Metabolic Stability Study M = mouse: 166.2 µL/min/mg
[2]
  EC50: 0.0042 µM
[3]
  Metabolic Stability Study H = human: 86.5 µL/min/mg
[4]
  EC50: > 30 µM
[5]
  IC50: 0.0052 µM

## CC(NC(=O)Nc1ccc(S(=O)(=O)Nc2ccc3c(c2)CCN(C)C3)cc1)c1cccc(F)c1F (stereo not shown) [H1346, 4-(3-(1-(2,3-difluorophenyl)ethyl)ureido)-N-(2-methyl-1,2,3,4-tetrahydroisoquinolin-6-yl)benzenesulfonamide]
[1]
  Metabolic Stability Study M = mouse: 69.3 µL/min/mg
[2]
  EC50: 0.00698 µM
[3]
  Metabolic Stability Study H = human: 72.9 µL/min/mg
[4]
  EC50: > 30 µM
[5]
  IC50: 0.0191 µM
